Assays:
[1] = test system: mice; assay: Tail suspension assay in mice; type: in vivo; details: 30 mg/kg oral, 60 minutes after dosing
Protocol: Another method of measuring antidepressant activity that may be used to evaluate the compounds of the present invention is the tail suspension test in mice described in Vogel, H. G. and Vogel, W. H. (Eds.) Drug Discovery and Evaluation, Springer-Verlag Berlin Heidelberg, 1997) pp. 304-3059). The mouse tail suspension assay was conducted 60 minutes after dosing. The duration of immobility was recorded for a period of 5 minutes after tail suspension was initiated, and reduction in the duration of immobility by ≥50% relative to the control group indicated antidepressant activity. Statistical analysis was also performed by using one-way ANOVA followed by Dunnett's test to compare the data of test compound-treated and vehicle control groups. Significance was considered to be P<0.05.

[2] = target: T1, serotonin transporter (Homo sapiens, UniProt P31645); assay: Serotonin transporter binding radioligand inhibition ([3H]-imipramine); details: concentration 10 μM; read-out: serotonin binding inhibition
T1 construct: expressed in transfected cells; host or cells: CHO cells
Excerpt: The serotonin transporter removes serotonin from the synaptic deft. The serotonin transporter terminates the effects of […], enabling its reuse by the presynaptic neuron.

[3] = target: T2, norepinephrine (NE) transporter (Homo sapiens, UniProt P23975); assay: Norepinephrine transporter binding radioligand inhibition ([3H]-nisoxetine); details: concentration 10 μM
T2 construct: expressed in transfected cells; host or cells: CHO cells
Protocol: The norepinephrine (NE) transporter removes NE from the synaptic cleft. The NE transporter terminates the effects of […], enabling its reuse by the presynaptic neuron. The in vitro binding of the compounds of the invention to the NE transporter and the percent inhibition of control-specific binding ([^3H]-nisoxetine in human recombinant CHO cells) is determined following the method described in Pacholczyk et al., (Nature 1991, 350(6316): 350-4.

[4] = target: uptake of norepinephrine (Homo sapiens, UniProt P23975); assay: Uptake inhibition of norepinephrine, cellular assay; type: cell-based; details: read-out: Norepinephrine reuptake inhibition (IC50 μM)
Protocol: (§1) The effect of the compounds of the present invention as inhibitors of the uptake of norepinephrine and serotonin in cellular assays at concentrations that range from […] to 1 nM is determined following the methods described in Galli, A. et al. J Exp Biol 1995, 198(Pt. 10): 2197-212 and Gu, H. et al. J Biol Chem. 1994, 269(10):7124-30.

[5] = target: uptake of serotonin (Homo sapiens, UniProt P31645); assay: Uptake inhibition of serotonin, cellular assay; type: cell-based; details: read-out: Serotonin reuptake inhibition (IC50 μM)
Protocol: as §1

[6] = test system: mice; assay: Mouse formalin assay (analgesic activity); type: in vivo; details: 90 mg/kg oral
Protocol: The analgesic activity of the compounds of the present invention is determined making use of the mouse formalin test described in Hunskaar, S. J Neurosci Methods 1985, 14(1): 69-76. The hind paw licking time was measured at 5-minute intervals for 30 minutes following subplantar injection of formalin (0.02 mL, 2%). Statistical analysis using one-way ANOVA followed by Dunnett's test was applied for comparison between the test substance-treated and vehicle control groups. P<0.05 was considered significant.

[7] = test system: CHO cells; assay: In vitro MTT toxicity screen; type: cell-based, Chinese hamster; details: 10 μM, compared to positive control group (10% DMSO)
Protocol: The toxicity of the compounds of the present invention at a concentration of 10 μM has been explored using the tetrazolium salt (MTT) method in CHO cells. The MTT method involving conversion of MTT to colored formazan by cells serves as an indirect measurement of cell growth/cell kill, as reported by several groups (Paimela, T. et al. Mol Vis 2012; 18: 1189-96; Hansen, M. B. et al. J Immunol Methods 1989, 119(2): 203-10).
In the MTT assay, cytotoxicity is correlated with the color of MTT and is measured with a spectrophotometer at the wavelength of 570 nm. Briefly, fresh MTT solution (10 mg/mL in 1×PBS) was added (1:20 volume of medium) and the cells were incubated for 1.5 hours. The cells were lysed and purple formazan was dissolved into the solution by overnight incubation with MTT lysis buffer (20% SDS, 50% N,N-dimethylformamide, 2% acetic acid, 25 mM HCl; the volume of medium+volume of MTT salt solution).

[8] = test system: mice; assay: Novel object recognition test (acute); type: in vivo; details: same experimental conditions
Excerpt: The novel object recognition task is used to evaluate cognition, particularly memory recognition, in rodent models of CNS disorders. This test is based on the spontaneous tendency of rodents to spend more time exploring a novel object than a familiar one. The choice to explore the novel object reflects the use of learning and memory recognition. The novel object recognition test provides a measure of activity in a novel environment allowing tests for emotional reactivity and also for novel object recognition, a cognitive domain that depends on hippocampal functional integrity. Animals were habituated to the presence of two identical objects (LEGO® pieces) during a single session of 5 minutes (training) and sniffing (exploration of an object was defined as pointing the nose to the object at a distance of <1 cm and/or touching it with the nose). Mice were injected with saline or with the compound to be tested and returned to their home cages. At 24 hours the animals were introduced in the same open field again with the same two items (familiarization), and again exploration in each of them for 5 minutes was registered. One hour later, the mice were retested in the open field for 3 minutes, but this time with one of the “familiar” objects replaced by a new one (test). To analyze cognitive performance, a discrimination index was calculated as the difference in time exploring the novel and familiar object, expressed as the ratio of the total time spent exploring both objects, which made it possible to adjust for any differences in total exploration time. This test is useful for assessing impaired cognitive ability in transgenic strains of mice and evaluating novel chemical entities for their effect on cognition (Zhang, R. J Alzheimers Dis 2012, 31(4): 801-12). […] Neuroplasticity 2007, 26496).

[9] = target: T3, Human dopamine transporters (Homo sapiens, UniProt Q01959); assay: Binding to the dopamine transporter ([125I]-RTI-55); details: reference compound; read-out: IC50, [125I]-RTI-55 binding to DAT
T3 construct: expressed in transfected cells; host or cells: CHO-K1 cells (membranes)
Protocol: Human dopamine transporters expressed in CHO—K1 cells are used in modified Tris-HCl buffer at pH 7.4. […] Non-specific binding is estimated in the presence of […] nomifensine.

T1 sequence (P31645 whole entry): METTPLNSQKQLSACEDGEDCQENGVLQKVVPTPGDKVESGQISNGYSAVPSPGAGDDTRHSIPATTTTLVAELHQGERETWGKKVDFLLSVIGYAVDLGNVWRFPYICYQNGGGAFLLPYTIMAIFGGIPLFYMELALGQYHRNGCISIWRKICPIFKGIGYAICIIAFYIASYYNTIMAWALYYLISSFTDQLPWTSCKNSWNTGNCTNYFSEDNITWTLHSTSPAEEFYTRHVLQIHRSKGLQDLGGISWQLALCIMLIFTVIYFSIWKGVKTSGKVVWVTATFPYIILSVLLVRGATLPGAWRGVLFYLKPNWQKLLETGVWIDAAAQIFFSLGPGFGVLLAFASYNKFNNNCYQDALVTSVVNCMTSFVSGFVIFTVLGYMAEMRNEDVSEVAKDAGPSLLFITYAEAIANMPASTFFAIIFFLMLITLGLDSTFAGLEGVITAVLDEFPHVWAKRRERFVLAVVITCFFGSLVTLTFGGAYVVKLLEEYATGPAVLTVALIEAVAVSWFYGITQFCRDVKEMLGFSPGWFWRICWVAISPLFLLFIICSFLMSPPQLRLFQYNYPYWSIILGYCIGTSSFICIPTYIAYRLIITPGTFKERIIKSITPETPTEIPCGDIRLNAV
Sequence of uptake of serotonin (P31645 whole entry): as above
T2 sequence (P23975 whole entry): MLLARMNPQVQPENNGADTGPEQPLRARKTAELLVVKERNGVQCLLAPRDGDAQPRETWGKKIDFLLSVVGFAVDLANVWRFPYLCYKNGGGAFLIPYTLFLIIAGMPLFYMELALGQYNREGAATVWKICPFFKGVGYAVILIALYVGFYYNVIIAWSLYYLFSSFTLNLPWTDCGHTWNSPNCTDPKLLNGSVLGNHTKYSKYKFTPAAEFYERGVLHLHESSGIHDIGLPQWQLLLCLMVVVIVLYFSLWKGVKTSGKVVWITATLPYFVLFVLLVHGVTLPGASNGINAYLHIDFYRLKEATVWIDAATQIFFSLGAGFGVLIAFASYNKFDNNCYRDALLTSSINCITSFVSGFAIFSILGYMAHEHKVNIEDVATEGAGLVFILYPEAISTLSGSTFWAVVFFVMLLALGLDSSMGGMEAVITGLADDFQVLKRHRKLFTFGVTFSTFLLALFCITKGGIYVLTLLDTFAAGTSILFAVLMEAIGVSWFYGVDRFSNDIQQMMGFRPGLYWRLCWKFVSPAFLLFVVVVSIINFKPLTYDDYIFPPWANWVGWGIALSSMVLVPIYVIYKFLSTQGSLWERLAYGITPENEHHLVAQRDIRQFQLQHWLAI
Sequence of uptake of norepinephrine (P23975 whole entry): as above
T3 sequence (Q01959 whole entry): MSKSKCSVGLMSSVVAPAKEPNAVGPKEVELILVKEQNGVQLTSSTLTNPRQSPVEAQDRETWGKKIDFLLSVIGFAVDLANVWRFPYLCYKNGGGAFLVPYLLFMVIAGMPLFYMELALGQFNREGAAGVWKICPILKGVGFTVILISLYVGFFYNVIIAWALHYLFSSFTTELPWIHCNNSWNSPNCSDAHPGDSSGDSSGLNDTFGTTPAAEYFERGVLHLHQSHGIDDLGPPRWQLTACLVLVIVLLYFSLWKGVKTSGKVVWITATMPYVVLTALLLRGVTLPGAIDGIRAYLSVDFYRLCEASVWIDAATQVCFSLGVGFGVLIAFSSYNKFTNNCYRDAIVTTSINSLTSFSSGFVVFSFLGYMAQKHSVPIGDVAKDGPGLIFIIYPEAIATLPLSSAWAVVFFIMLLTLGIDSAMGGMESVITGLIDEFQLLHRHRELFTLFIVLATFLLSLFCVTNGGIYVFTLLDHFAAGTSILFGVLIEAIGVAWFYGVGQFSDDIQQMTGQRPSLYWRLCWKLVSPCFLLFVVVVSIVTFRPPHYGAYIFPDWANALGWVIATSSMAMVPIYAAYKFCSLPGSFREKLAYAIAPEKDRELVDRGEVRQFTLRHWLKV

CNCCCN1c2ccccc2CCc2ccccc21 [Desipramine, reference compound]
antidepressant effect (duration of immobility) [1]: significant effect

Cl.NCCC(Oc1ccc(CCO)cc1)c1ccccc1 (stereo not drawn) [Example 12, 2-[4-(3-Amino-1-phenylpropoxy)phenyl]ethanol hydrochloride]
inhibition at 10 µM [2]: 78%
inhibition at 10 µM [3]: 79%
IC50 [4]: 2.7 µM
IC50 [5]: 1 µM
melting point: 68 to 70 °C

Cl.OCCc1ccc(OCC2CNCCO2)cc1 (stereo not drawn) [Example 18, 2-[4-(Morpholin-2-ylmethoxy)phenyl]ethanol hydrochloride]
inhibition at 10 µM [2]: 68 to 82%
analgesic activity following formalin challenge (hind paw licking time) [6]: demonstrated analgesic activity
inhibition at 10 µM [3]: 65 to 90%
cell viability (MTT) [7]: 100%
IC50 [4]: 1.6 to 2.9 µM
IC50 [5]: 2.5 to 4.8 µM
melting point: 163 to 169 °C

CNCCC(Oc1cc(CCO)cc(CCO)c1)c1ccccc1 (stereo not drawn) [Example 20, 2,2′-[5-[3-(Methylamino)-1-phenylpropoxy]-1,3-phenylene]diethanol]
inhibition at 10 µM [2]: 68 to 82%
inhibition at 10 µM [3]: 65 to 90%
IC50 [4]: 1.6 to 2.9 µM
IC50 [5]: 2.5 to 4.8 µM

CNCCC(Oc1cc(CCCO)cc(CCCO)c1)c1ccccc1 (stereo not drawn) [Example 21, 3,3′-[5-[3-(Methylamino)-1-phenylpropoxy]-1,3-phenylene]dipropan-1-ol]
inhibition at 10 µM [2]: 68 to 82%
inhibition at 10 µM [3]: 65 to 90%
IC50 [4]: 1.6 to 2.9 µM
IC50 [5]: 2.5 to 4.8 µM

CNCCC(Oc1cc(CCCCO)cc(CCCCO)c1)c1ccccc1 (stereo not drawn) [Example 22, 4,4′-[5-[3-(Methylamino)-1-phenylpropoxy]-1,3-phenylene]dibutan-1-ol]
inhibition at 10 µM [2]: 68 to 82%
inhibition at 10 µM [3]: 65 to 90%
IC50 [4]: 1.6 to 2.9 µM
IC50 [5]: 2.5 to 4.8 µM

CNCCC(Oc1ccc(CCO[C@@H]2O[C@H](CO)[C@@H](O)[C@H](O)[C@H]2O)cc1)c1ccccc1 (stereo partly drawn) [Example 23, (2R,3S,4S,5R,6R)-2-(Hydroxymethyl)-6-[4-[3-(methylamino)-1-phenylpropoxy]phenethoxy]tetrahydro-2H-pyran-3,4,5-triol]
inhibition at 10 µM [2]: 68 to 82%
inhibition at 10 µM [3]: 65 to 90%
IC50 [4]: 1.6 to 2.9 µM
IC50 [5]: 2.5 to 4.8 µM

CN(C)CCC(Oc1ccc(CCO)cc1)c1ccccc1 (stereo not drawn) [Example 24, 2-[4-(3-Dimethylamino-1-phenylpropoxy)phenyl]ethanol]
inhibition at 10 µM [2]: 68 to 82%
inhibition at 10 µM [3]: 65 to 90%
IC50 [4]: 1.6 to 2.9 µM
IC50 [5]: 2.5 to 4.8 µM

CNCCC(Oc1ccc(C/C=C/CO)cc1)c1ccccc1 (stereo not drawn) [Example 25, 4-[4-(3-Methylamino-1-phenylpropoxy)phenyl]but-2-en-1-ol]
inhibition at 10 µM [2]: 68 to 82%
inhibition at 10 µM [3]: 65 to 90%
IC50 [4]: 1.6 to 2.9 µM
IC50 [5]: 2.5 to 4.8 µM

CNCCC(Oc1ccc(CCCCCCO)cc1)c1ccccc1 (stereo not drawn) [Example 26, 6-[4-(3-Methylamino-1-phenylpropoxy)phenyl]hexan-1-ol]
inhibition at 10 µM [2]: 68 to 82%
inhibition at 10 µM [3]: 65 to 90%
IC50 [4]: 1.6 to 2.9 µM
IC50 [5]: 2.5 to 4.8 µM

CNCCC(Oc1ccc(/C=C/CCCCO)cc1)c1ccccc1 (stereo not drawn) [Example 27, 6-[4-(3-Methylamino-1-phenylpropoxy)phenyl]hex-5-en-1-ol]
inhibition at 10 µM [2]: 68 to 82%
inhibition at 10 µM [3]: 65 to 90%
IC50 [4]: 1.6 to 2.9 µM
IC50 [5]: 2.5 to 4.8 µM

CNCC[C@H](Oc1ccc(CCO)cc1)c1cccs1 [Example 28, (S)2-[4-(3-Methylamino-1-thiophen-2-ylpropoxy)phenyl]ethanol]
inhibition at 10 µM [2]: 68 to 82%
inhibition at 10 µM [3]: 65 to 90%
IC50 [4]: 1.6 to 2.9 µM
IC50 [5]: 2.5 to 4.8 µM

OCCc1ccc(OC(c2ccccc2)C2CNCCO2)cc1 (stereo not drawn) [Example 29, 2-[4-(Morpholin-2-yl(phenyl)methoxy)phenyl]ethanol]
inhibition at 10 µM [2]: 68 to 82%
inhibition at 10 µM [3]: 65 to 90%
IC50 [4]: 1.6 to 2.9 µM
IC50 [5]: 2.5 to 4.8 µM

OCCc1ccc(OC[C@@H]2CNCC[C@H]2c2ccc(F)cc2)cc1 [Example 30, 2-[4-[[(3S,4R)-4-(4-Fluorophenyl)piperidin-3-yl]methoxy]phenyl]ethanol]
inhibition at 10 µM [2]: 68 to 82%
inhibition at 10 µM [3]: 65 to 90%
IC50 [4]: 1.6 to 2.9 µM
IC50 [5]: 2.5 to 4.8 µM

CN(C)CC(Oc1ccc(CCO)cc1)C1CCCCC1O (stereo not drawn) [Example 31, 2-[2-Dimethylamino-1-[4-(2-hydroxyethyl)phenoxy]ethyl]cyclohexanol]
inhibition at 10 µM [2]: 68 to 82%
inhibition at 10 µM [3]: 65 to 90%
IC50 [4]: 1.6 to 2.9 µM
IC50 [5]: 2.5 to 4.8 µM

CN(C)CC(Oc1ccc(CCO)cc1)C1(O)CCCCC1 (stereo not drawn) [Example 32, 1-[2-Dimethylamino-1-[4-(2-hydroxyethyl)phenoxy]-ethyl]-cyclohexanol]
inhibition at 10 µM [2]: 68 to 82%
inhibition at 10 µM [3]: 65 to 90%
IC50 [4]: 1.6 to 2.9 µM
IC50 [5]: 2.5 to 4.8 µM

CNCCC(Oc1ccc(C(F)(F)F)cc1)c1ccccc1 (stereo not drawn) [Fluoxetine, reference compound]
cognitive improvement ([8]; 30 mg/kg i.p.): absence of cognitive improvement

CCN(CC)C(=O)C1(c2ccccc2)CC1CN (stereo not drawn) [milnacipran, reference compound]
cognitive improvement ([8]; 30 mg/kg i.p.): absence of cognitive improvement

C#CCN[C@@H]1CCc2ccccc21 [rasagiline, reference compound]
cognitive improvement ([8]; 3 mg/kg i.p.): absence of cognitive improvement

COC(=O)[C@H]1[C@H]2C[C@@H]3c4[nH]c5cc(OC)ccc5c4CCN3C[C@H]2C[C@@H](OC(=O)c2cc(OC)c(OC)c(OC)c2)[C@@H]1OC [reserpine, reference compound]
IC50 [9]: 1300 nM
